Source: patent publication US9528090B2, “Differentiation of human embryonic stem cells” (Janssen Biotech, Inc., priority 2010, dated 2016)

Experiments:
[1] = system: ES cells; settings: 200 ng/ml of insulin added to 2% FBS, MEF-CM, activin A; cited from earlier work
[2] = system: human embryonic stem cells line H1; experiment: Definitive endoderm differentiation of H1 cells, single cell seeding (activin A/WNT-3a, MCDB-131): FACS for CXCR4 and CD9; type: cell-based; settings: for % CXCR4 + CD9− / % CXCR4 − CD9+ / % CXCR4 − CD9−: single cell seeding, day 4
Procedure: Cells of the human embryonic stem cells line H1 (p40-p52) were seeded as single cells at a density of 100000 cells/cm^2 on MATRIGEL® (1:30 dilution) (BD Biosciences; Cat #356231)-coated dishes in MEF-CM (mouse embryonic fibroblast conditioned media) supplemented with 16 ng/ml of FGF2 (Catalog#100-18B, PeproTech, NJ) and 10 μM of Y27632 (Rock inhibitor, Catalogue#Y0503, Sigma, Mo.). 72 hrs post seeding, cultures were differentiated into definitive endoderm (DE) as follows: • a. MCDB-131 (Catalogue#10372-019, Invitrogen, CA) medium supplemented with 2% fatty acid-free BSA (Catalog#68700, Proliant, IA), 0.0025 g/ml sodium bicarbonate (Catalogue #S3187, Sigma, Mo.), 1× GlutaMax™ (Catalogue #35050-079, Invitrogen, Ca) and 100 ng/ml activin A (R&D Systems, MN) plus 20 ng/ml WNT-3a (Catalog#1324-WN-002, R&D Systems, MN) for one day, then • b. MCDB-131 medium supplemented with 2% BSA, sodium bicarbonate, Glutamax, and 100 ng/ml activin A for an additional three days.
In some of the cultures, the cells were treated with the following concentrations of insulin (Catalogue#19278, Sigma, Mo.): 0, 1, 10, 100, 1000, or 10000 ng/ml. At day 4, samples were collected for FACS and gene expression analysis using real-time PCR.
FIG. 5 depicts the CXCR4 and CD9 expression profile of the various treatments as measured by FACS analysis.

[3] = system: human embryonic stem cells line H1; experiment: Definitive endoderm differentiation of H1 cells, cluster seeding: real-time PCR gene expression; type: cell-based; settings: 1-100 ng/ml of insulin, BSA medium, day 4, real-time PCR
Procedure: (§1) Cells of the human embryonic stem cells line H1 (p40-p52) were cultured on MATRIGEL® (1:30 dilution) (BD Biosciences; Cat #356231)-coated dishes in MEF-CM (mouse embryonic fibroblast conditioned media) supplemented with 16 ng/ml of FGF2 (Catalog#100-18B, PeproTech, NJ), and differentiated into cells expressing markers characteristic of the definitive endoderm lineage as follows: • a. RPMI medium supplemented with 2% fatty acid-free BSA (Catalog#68700, Proliant, IA), and 100 ng/ml activin A (R&D Systems, MN) plus 20 ng/ml WNT-3a (Catalog#1324-WN-002, R&D Systems, MN) for one day, then • b. RPMI medium supplemented with 2% BSA and 100 ng/ml activin A for an additional three days.
In some of the cultures, the cells were treated with the following dilution of ITS-X (Catalogue#51500-056, Invitrogen, CA): 0, 1:10^6, 1:5×10^5, 1:10^5, 1:10^4. ITS-X is a serum replacement supplemented comprised of 1 mg/ml of Insulin, 0.55 mg/ml of Transferrin, 0.00067 mg/ml of Sodium Selenite, and 0.2 mg/ml of Ethanolamine The range of dilutions of ITS-X correspond to 0, 1 ng/ml, 2 ng/ml, 10 ng/ml, and 100 ng/ml of insulin. As a control, 0.2% FBS (Catalogue#SH30070.03, Hyclone, UT) was used for day 1 of differentiation, 0.5% FBS at day 2 and 2% FBS was used for days 3-4. The FBS treated cultures were not supplemented with ITS-X. […]

[4] = system: human embryonic stem cells line H1; experiment: Definitive endoderm differentiation of H1 cells, cluster seeding (activin A/WNT-3a, RPMI): FACS for CXCR4 and CD9; type: cell-based; settings: for % CXCR4 + CD9− / % CXCR4 − CD9+ / % CXCR4 − CD9−: cluster seeding, day 4
Procedure: as §1, with “[…]®” for “MATRIGEL®”
[…] ITS-X is a serum replacement supplemented comprised of 1 mg/ml of Insulin, 0.55 mg/ml of Transferrin, 0.00067 mg/ml of Sodium Selenite, […] As a control, 0.2% FBS (Catalogue#SH30070.03, Hyclone, UT) was used for day 1 of differentiation, 0.5% FBS at day 2 and 2% FBS was used for days 3-4. The FBS treated cultures were not supplemented with ITS-X.
At day 4, samples were collected for FACS and gene expression analysis using real-time PCR.
The cell surface receptor CXCR4 has been previously shown to be a marker of definitive endoderm. CD9 is a marker for undifferentiated ES cells. Consequently, an increase in the expression of CXCR4, and a decrease in the expression of CD9 in a population of cells is indicative for the formation of definitive endoderm.

[5] = super physiological insulin (1-10 μg/ml), BSA medium
[6] = BSA + 100 ng/ml insulin (ITS-X)

insulin
decrease of the expression of SOX17 [1]: approximately 70%
% CXCR4 + CD9− ([2]; BSA + 1 ng/ml insulin): 96%
% CXCR4 − CD9+ ([2]; BSA + 1 ng/ml insulin): 1.5%
% CXCR4 − CD9− ([2]; BSA + 1 ng/ml insulin): 0.7%
% CXCR4 + CD9− ([2]; BSA + 10 ng/ml insulin): 95%
% CXCR4 − CD9+ ([2]; BSA + 10 ng/ml insulin): 1.4%
% CXCR4 − CD9− ([2]; BSA + 10 ng/ml insulin): 0.7%
% CXCR4 + CD9− ([2]; BSA + 100 ng/ml insulin): 90%
% CXCR4 − CD9+ ([2]; BSA + 100 ng/ml insulin): 4.1%
% CXCR4 − CD9− ([2]; BSA + 100 ng/ml insulin): 2%
% CXCR4 + CD9− ([2]; BSA + 1 μg/ml insulin): 90%
% CXCR4 − CD9+ ([2]; BSA + 1 μg/ml insulin): 3.6%
% CXCR4 − CD9− ([2]; BSA + 1 μg/ml insulin): 2.2%
% CXCR4 + CD9− ([2]; BSA + 10 μg/ml insulin): 84%
% CXCR4 − CD9+ ([2]; BSA + 10 μg/ml insulin): 6.6%
% CXCR4 − CD9− ([2]; BSA + 10 μg/ml insulin): 4.7%
CXCR4−CD9+ fraction [2, 5]: increase in expression
percentage of CXCR4+CD9− cells [2, 5]: decrease in the percentage
expression of markers of definitive endoderm (FOXA2, SOX17, CXCR4), mesenchyme (T), extraembryonic (SOX7, AFP) [3]: did not significantly affect
% CXCR4 + CD9− ([4]; BSA + 1 ng/ml insulin (ITS-X)): 70%
% CXCR4 − CD9+ ([4]; BSA + 1 ng/ml insulin (ITS-X)): 13%
% CXCR4 − CD9− ([4]; BSA + 1 ng/ml insulin (ITS-X)): 10%
% CXCR4 + CD9− ([4]; BSA + 5 ng/ml insulin (ITS-X)): 67%
% CXCR4 − CD9+ ([4]; BSA + 5 ng/ml insulin (ITS-X)): 15%
% CXCR4 − CD9− ([4]; BSA + 5 ng/ml insulin (ITS-X)): 12%
% CXCR4 + CD9− ([4]; BSA + 10 ng/ml insulin (ITS-X)): 69%
% CXCR4 − CD9+ ([4]; BSA + 10 ng/ml insulin (ITS-X)): 13%
% CXCR4 − CD9− ([4]; BSA + 10 ng/ml insulin (ITS-X)): 13%
% CXCR4 + CD9− [4, 6]: 73%
% CXCR4 − CD9+ [4, 6]: 12%
% CXCR4 − CD9− [4, 6]: 9%
expression of CXCR4, or CD9 ([4]; BSA medium, any concentration of insulin tested, FACS): no significant change
